In PMC8619046, “ABCB1 and ABCG2 Control Brain Accumulation and Intestinal Disposition of the Novel ROS1/TRK/ALK Inhibitor Repotrectinib, While OATP1A/1B, ABCG2, and CYP3A Limit Its Oral Availability” (Pharmaceutics, 2021):
Values joined by “and” are separate entries in the source; they are usually repeats but may differ in a detail not shown here. Equal entries are not always repeated. Where two headings read alike, the source gives them in different places.

Test: 8-h pilot oral plasma pharmacokinetics and tissue distribution, female wild-type, Abcb1a/1b;Abcg2−/− and Oatp1a/1b−/− mice
Format: in vivo
Details: 10 mg/kg oral; for Fold change (SIC (% of dose)-to-plasma ratio) / Fold change SIC (% of dose) / Fold increase Cbrain / Fold increase Cliver / Fold increase ratio (liver-to-plasma) / Fold change AUC0-8h / Fold increase ratio (brain-to-plasma): vs wild-type; for Kp at 8 h / concentration at 8 h / Cmax / AUC(0-t): female, po; for AUC(0-t): read-out: AUC0-8h
Description: Mice with similar average ages (and body weights) were randomly allocated in experimental groups as far as possible. Mice were maintained in a temperature-controlled and specific pathogen-free environment with a 12-h light and 12-h dark cycle and they received a standard diet (Transbreed, SDS Diets, Technilab-BMI, Someren, The Netherlands) and acidified water ad libitum. […] Given the objective main readout (repotrectinib plasma and tissue concentrations as measured by LC-MS/MS), no blinding method was applied.
Repotrectinib was dissolved in dimethyl sulfoxide (DMSO) at a concentration of 50 mg/mL. This stock solution was first diluted 3-fold with ethanol/polysorbate 80 (1/1; v/v), followed by further dilution with a 10 mM hydrochloric acid solution, yielding a dosing solution of 1 mg/mL, freshly prepared on the day of experiment. Final concentrations of the solvents in the administration solution were: 2%, 2%, 2%, and 94% (all v/v) for DMSO, ethanol, polysorbate 80, and 10 mM hydrochloric acid solution, respectively.
To minimize variation in absorption upon oral administration, mice were fasted for 2–3 h before repotrectinib (10 mg/kg body weight) was administered by gavage into the stomach at 10 µL/g body weight, with a blunt-ended needle. Tail vein serial blood samples were collected at 0.125, 0.25, 0.5, 1, 2 and 4 h using heparinized capillary tubes (Sarstedt, Nümbrecht, Germany) for the 8-h experiments. For the 4- and 2-h experiments, blood samplings were performed from the tail vein with the same schedule, but terminated at 2 and 1 h, respectively. Eight, four, or two hours after oral administration, mice were deeply anesthetized with 2–3% isoflurane, followed by cardiac puncture to collect blood in Eppendorf tubes containing heparin as an anticoagulant. Brain, liver, spleen, kidney, lung, small intestine, and testis were rapidly collected after sacrificing the mice by cervical dislocation. The small intestinal contents (SIC) were separated from small intestinal tissue (SI), which was flushed and rinsed with cold saline to remove any residual feces. Brain, liver, spleen, kidney, lung, SI, SIC, and testis were homogenized with 1, 3, 1, 2, 1, 3, 2, and 1 mL of 2% BSA (w/v), respectively. Plasma fraction was isolated from blood by centrifugation at 9000× g for 6 min at 4 °C. All samples were stored at −30 °C until analysis.
A sensitive and specific liquid chromatography-tandem mass spectrometry method using protein precipitation pre-treatment was adopted to quantify the concentration of repotrectinib in DMEM medium, plasma samples and tissue homogenates.
A non-compartmental model using the PKSolver add-in program for Microsoft Excel was adopted to calculate the pharmacokinetic parameters of repotrectinib. Oral availability was assessed by the plasma area under the curve (AUC), calculated using repotrectinib plasma concentration-time curves with the linear trapezoidal rule without extrapolating the infinity. Statistical testing was performed in Graphpad Prism7 (Graphpad Software, La Jolla, CA, USA). All data are presented as geometric means ± SD. Heteroscedastic data were log-transformed before applying statistical analysis. When differences between two groups were compared, the two-sided unpaired Student’s t test was used. One-way analysis of variance (ANOVA) was applied when multiple groups were compared, and the Bonferroni post hoc correction was used to accommodate multiple testing. Differences were considered statistically significant when P < 0.05.

[1] = Table S1, female Abcb1a/1b;Abcg2−/− mice, 8 h
[2] = Table S1, female Abcb1a/1b;Abcg2−/− mice, 8 h, 10 mg/kg
[3] = Table S1, female Oatp1a/1b−/− mice, 8 h
[4] = Table S1, female wild-type mice, 8 h
[5] = FVB, mouse, plasma, 10 mg/kg, Table S1, female Abcb1a/1b;Abcg2−/− mice, 8 h
[6] = FVB, mouse, plasma, 10 mg/kg, Table S1, female wild-type mice, 8 h

## C[C@H]1CNC(=O)c2cnn3ccc(nc23)N[C@H](C)c2cc(F)ccc2O1 [repotrectinib]
>99% FVB background, mouse, plasma, female wild-type and Abcb1a/1b;Abcg2−/− mice, 8-h pilot, read-out: time of peak plasma concentrations after dosing (converted)
  Tmax: 30 min
FVB, mouse, plasma, Table S1, median (range), female wild-type mice, 8 h, read-out: Tmax
  Tmax: 30 min
[1]
  SIC (% of dose): 0.22 ± 0.20 % of dose
  SIC (% of dose)-to-plasma ratio: 0.48 ± 0.43 ·10-3
  Fold change (SIC (% of dose)-to-plasma ratio): 0.054
  Fold change SIC (% of dose): 0.11
  Fold increase Cbrain: 19.5
  Fold increase Cliver: 1.50
  Fold increase ratio (liver-to-plasma): 0.79
[2]
  Fold change AUC0-8h: 1.42 and 1.4
  Fold increase ratio (brain-to-plasma): 9.46 and 9.5
[3]
  SIC (% of dose): 5.59 ± 3.32 % of dose
  SIC (% of dose)-to-plasma ratio: 14.5 ± 8.9 ·10-3
  Fold change (SIC (% of dose)-to-plasma ratio): 1.63
  Fold change SIC (% of dose): 2.69
  Fold increase Cbrain: 3.64
  Fold increase Cliver: 1.43
  Fold increase ratio (brain-to-plasma): 1.85
  Fold increase ratio (liver-to-plasma): 0.86
Table S1, female Oatp1a/1b−/− mice, 8 h, 10 mg/kg
  Fold change AUC0-8h: 1.51 and 1.5
[4]
  SIC (% of dose): 2.08 ± 1.35 % of dose
  SIC (% of dose)-to-plasma ratio: 8.87 ± 1.83 ·10-3
  Fold change (SIC (% of dose)-to-plasma ratio): 1.00
  Fold change AUC0-8h: 1.00
  Fold change SIC (% of dose): 1.00
  Fold increase Cbrain: 1.00
  Fold increase Cliver: 1.00
  Fold increase ratio (brain-to-plasma): 1.00
  Fold increase ratio (liver-to-plasma): 1.00
Table S1, median (range), female Abcb1a/1b;Abcg2−/− mice, 8 h
  Tmax: 0.5 (0 .5-1) h
Table S1, median (range), female Oatp1a/1b−/− mice, 8 h
  Tmax: 0.5 (0.25-1) h
FVB, mouse, brain, 10 mg/kg, Table S1, female Abcb1a/1b;Abcg2−/− mice, 8 h, read-out: Brain-to-plasma ratio
  Kp at 8 h: 2.46 ± 0.31
FVB, mouse, brain, 10 mg/kg, Table S1, female Abcb1a/1b;Abcg2−/− mice, 8 h, read-out: Cbrain
  concentration at 8 h: 1000 ± 320 ng/g
FVB, mouse, brain, 10 mg/kg, Table S1, female Oatp1a/1b−/− mice, 8 h, read-out: Brain-to-plasma ratio
  Kp at 8 h: 0.48 ± 0.12
FVB, mouse, brain, 10 mg/kg, Table S1, female Oatp1a/1b−/− mice, 8 h, read-out: Cbrain
  concentration at 8 h: 186 ± 51.4 ng/g
FVB, mouse, brain, 10 mg/kg, Table S1, female wild-type mice, 8 h, read-out: Brain-to-plasma ratio
  Kp at 8 h: 0.26 ± 0.12
FVB, mouse, brain, 10 mg/kg, Table S1, female wild-type mice, 8 h, read-out: Cbrain
  concentration at 8 h: 51.2 ± 17.8 ng/g
FVB, mouse, liver, 10 mg/kg, Table S1, female Abcb1a/1b;Abcg2−/− mice, 8 h, read-out: Cliver
  concentration at 8 h: 1780 ± 770 ng/mL
FVB, mouse, liver, 10 mg/kg, Table S1, female Abcb1a/1b;Abcg2−/− mice, 8 h, read-out: Liver-to-plasma ratio
  Kp at 8 h: 4.21 ± 0.35
FVB, mouse, liver, 10 mg/kg, Table S1, female Oatp1a/1b−/− mice, 8 h, read-out: Cliver
  concentration at 8 h: 1750 ± 450 ng/mL
FVB, mouse, liver, 10 mg/kg, Table S1, female Oatp1a/1b−/− mice, 8 h, read-out: Liver-to-plasma ratio
  Kp at 8 h: 4.59 ± 1.28
FVB, mouse, liver, 10 mg/kg, Table S1, female wild-type mice, 8 h, read-out: Cliver
  concentration at 8 h: 1220 ± 650 ng/mL
FVB, mouse, liver, 10 mg/kg, Table S1, female wild-type mice, 8 h, read-out: Liver-to-plasma ratio
  Kp at 8 h: 5.36 ± 0.54
[5]
  Cmax: 6190 ± 440 ng/mL
  AUC(0-t): 23100 ± 2110 ng·h/mL
FVB, mouse, plasma, 10 mg/kg, Table S1, female Oatp1a/1b−/− mice, 8 h
  AUC(0-t): 24600 ± 3270 ng·h/mL
[6]
  Cmax: 4800 ± 1780 ng/mL
  AUC(0-t): 16300 ± 6350 ng·h/mL
Oatp1a/1b−/−, >99% FVB background, mouse, plasma, 10 mg/kg, Table S1, female Oatp1a/1b−/− mice, 8 h
  Cmax: 6150 ± 800 ng/mL
